# Molecular target: T1, Jagged1 (Homo sapiens, UniProt P78504)
# T1 construct: gene JAG1; full-length extracellular domain (C2 to EGF16, 1277-JG-050, R&D Systems) tagged with an Fc-tag (Jagged1-Fc)
# Test: label-free microscale thermophoresis (MST)
# Assay type: binding
# T1 sequence (P78504 34-1067 limits assumed): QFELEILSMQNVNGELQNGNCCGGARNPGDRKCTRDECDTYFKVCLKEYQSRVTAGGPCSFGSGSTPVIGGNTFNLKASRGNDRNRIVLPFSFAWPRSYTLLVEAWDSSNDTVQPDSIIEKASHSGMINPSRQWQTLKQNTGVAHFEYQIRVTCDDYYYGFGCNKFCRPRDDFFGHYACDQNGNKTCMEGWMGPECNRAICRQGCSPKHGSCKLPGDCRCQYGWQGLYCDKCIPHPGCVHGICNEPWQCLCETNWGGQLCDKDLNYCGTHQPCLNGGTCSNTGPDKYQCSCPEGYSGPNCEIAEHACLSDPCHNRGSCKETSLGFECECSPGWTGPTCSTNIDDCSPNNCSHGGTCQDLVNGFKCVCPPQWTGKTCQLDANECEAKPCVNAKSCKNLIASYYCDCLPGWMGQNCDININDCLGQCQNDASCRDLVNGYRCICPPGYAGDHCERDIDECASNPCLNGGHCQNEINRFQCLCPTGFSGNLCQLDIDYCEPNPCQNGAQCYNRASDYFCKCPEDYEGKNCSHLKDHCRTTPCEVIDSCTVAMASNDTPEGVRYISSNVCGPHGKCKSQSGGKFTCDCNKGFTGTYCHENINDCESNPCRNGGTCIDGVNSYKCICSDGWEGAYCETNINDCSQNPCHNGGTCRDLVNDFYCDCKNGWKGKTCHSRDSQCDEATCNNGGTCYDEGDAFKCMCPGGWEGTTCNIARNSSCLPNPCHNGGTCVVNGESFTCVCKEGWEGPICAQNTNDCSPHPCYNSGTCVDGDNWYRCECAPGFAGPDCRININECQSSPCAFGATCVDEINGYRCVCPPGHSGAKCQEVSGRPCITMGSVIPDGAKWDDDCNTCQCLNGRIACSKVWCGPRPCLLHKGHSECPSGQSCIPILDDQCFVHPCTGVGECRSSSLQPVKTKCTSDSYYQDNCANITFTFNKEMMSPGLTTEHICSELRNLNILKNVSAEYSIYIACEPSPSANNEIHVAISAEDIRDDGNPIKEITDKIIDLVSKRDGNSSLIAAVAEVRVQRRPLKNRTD
compound,measurement,value
"[N-]=[N+]=N[C@]1(CO)O[C@@H](n2ccc(N)nc2=O)[C@@H](F)[C@@H]1O [FNC, 2′-deoxy-2′-β-fluoro-4′-azidocytidine]",Kd,28.4 ± 6.6 µM
